For 2 molecules, IC50 and inhibition results are on record in ChEMBL document CHEMBL3045300, “Synthesis of photolabile lac-acetogenin for photoaffinity labeling of mitochondrial complex I” (J Pestic Sci, 2006).

Experiment [1] in a line: Inhibition of Bos taurus (bovine) heart submitochondrial NADH complex 1 by NADH oxidase assay.
For the next experiment, the species on record is Bos taurus. Briefly: Inhibition of Bos taurus (bovine) heart submitochondrial NADH complex 1 at 12 nM by NADH oxidase assay.

Molecule `O=C1N[C@H]2[C@H](CS[C@H]2CCCCC(=O)OCCCCCCC[C@@H](O)[C@H]2CC[C@H]([C@H]3CC[C@H]([C@H](O)CCCCCCOc4ccc(C5(C(F)(F)F)N=N5)cc4)O3)O2)N1` returned an IC50 in experiment [1] of 3.9 nM. For the same molecule, the inhibition in the experiment listed under Bos taurus is above 95%.

As for `CCCCCCCCCC[C@@H](O)[C@H]1CC[C@H]([C@H]2CC[C@H]([C@H](O)CCCCCCCCCC)O2)O1` [dleta-lac-Acetogenin], the IC50 in experiment [1] is 1.8 nM.
